Laboratory results from US10099993B2, “Metabotropic glutamate receptor positive allosteric modulators (PAMS) and uses thereof” (Sanford-Burnham Medical Research Institute, priority 2014, dated 2018).

How the values were obtained:
[1] = test system: cocaine-maintained responding in rats; conditions: previously shown (Jin, X. et al. 2010); cited from earlier work
[2] = test system: food-maintained responding in rats; conditions: previously shown (Jin, X. et al. 2010); cited from earlier work
[3] = target: T1, mGlu3 (Rattus norvegicus (Rat), UniProt P31422); assay: TREx293 mGlu3 Gα15 calcium assay; assay type: cell-based; conditions: presence of an EC20 of glutamate, 20 ng/mL Tet for 20 h
Description: In order to generate a tetracycline (Tet)-inducible rat mGlu3 stable cell line to be used for a calcium mobilization assay, TREx293 cells (Invitrogen) were transfected with mouse Gα15-pCMV6 plasmid (Origene) using Fugene6 (Promega). The cells were selected for Gα15 expression with 1 mg/mL G418 in the presence of 10 μg/ml blasticidin to maintain Tet Repressor expression. Two weeks after the selection, polyclonal TREx293 Gα15 cells were obtained. The entire coding sequence of rat mGlu3 was amplified by polymerase chain reaction (PCR) and cloned into the Tet-inducible expression plasmid pcDNA5/TO (Invitrogen). Rat mGlu3-pcDNA5/TO was transfected into TREx293 Gα15 cells and selected for mGlu3 expression with 200 μg/ml hygromycin in the presence of G418 and blasticidin.
For mGlu3 the TREx tetracycline-inducible system (Invitrogen) was utilized. […] In the absence of Tet, no measurable expression of mGlu3 is detected either by Western blot (FIG. 3A) or by functional response to calcium mobilization (FIG. 3B). […] Data were analyzed using nonlinear regression. Data were obtained from three separate experiments performed in triplicate, normalized to the response to 100 μM glutamate in each experiment, and are expressed as the mean±SEM.

[4] = target: mGlu6 (Rattus norvegicus (Rat), UniProt P35349); assay: mGlu6 GIRK thallium flux assay; assay type: cell-based; conditions: full agonist concentration-response ± 10 μM compound
[5] = target: mGlu4 (Rattus norvegicus (Rat), UniProt P31423); assay: mGlu4 GIRK thallium flux assay; assay type: cell-based; conditions: full agonist concentration-response ± 10 μM compound
[6] = target: T1, mGlu3; assay: mGlu3 GIRK thallium flux assay; conditions: for General activity at mGlu3: full agonist concentration-response ± 10 μM compound; for Emax: read-out: mGlu3 PAM Max;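 as to all read-outs here: kinetic fluorescence slope read shortly after thallium plus agonist addition, scaled between vehicle and maximal agonist control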
[7] = target: mGlu7 (Rattus norvegicus (Rat), UniProt P35400); assay: mGlu7 GIRK thallium flux assay; assay type: cell-based; conditions: full L-AP4 concentration-response ± 10 μM compound
[8] = target: mGlu8 (Rattus norvegicus (Rat), UniProt P70579); assay: mGlu8 GIRK thallium flux assay; assay type: cell-based; conditions: full agonist concentration-response ± 10 μM compound
[9] = target: mGlu1 (Rattus norvegicus (Rat), UniProt P23385); assay: mGlu1 calcium assay; assay type: cell-based; conditions: full agonist concentration-response ± 10 μM compound
[10] = In vivo PK in rats, p.o. administration; parameters: species or system rat; conditions: 20 mg/kg; for Plasma: harvested at or near the Tmax; for Kp / Tmax / Cmax: rat, po; for Kp: brain and plasma, read-out: Brain:Plasma ratio; for Tmax / Cmax: plasma
[11] = In vivo PK in rats, i.v. administration; parameters: species or system rat; conditions: 2 mg/kg; for Cmax / Vd: rat, iv, plasma; for Vd: read-out: Vdss
[12] = target: mGlu5 (Rattus norvegicus (Rat), UniProt P31424); assay: mGlu5 calcium assay; assay type: cell-based; conditions: full agonist concentration-response ± 10 μM compound
[13] = target: mGlu2 (Rattus norvegicus (Rat), UniProt P31421); assay: mGlu2 GIRK thallium flux assay; conditions: for General activity at mGlu2: full agonist concentration-response ± 10 μM compound; for Emax: read-out: mGlu2 PAM Max;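 as to all read-outs here: Cell-based assay, rate of fluorescence rise right after thallium plus agonist addition read on a kinetic imaging plate reader, normalized to vehicle and maximal agonist control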
mGlu2, sequence (P31421 19-872): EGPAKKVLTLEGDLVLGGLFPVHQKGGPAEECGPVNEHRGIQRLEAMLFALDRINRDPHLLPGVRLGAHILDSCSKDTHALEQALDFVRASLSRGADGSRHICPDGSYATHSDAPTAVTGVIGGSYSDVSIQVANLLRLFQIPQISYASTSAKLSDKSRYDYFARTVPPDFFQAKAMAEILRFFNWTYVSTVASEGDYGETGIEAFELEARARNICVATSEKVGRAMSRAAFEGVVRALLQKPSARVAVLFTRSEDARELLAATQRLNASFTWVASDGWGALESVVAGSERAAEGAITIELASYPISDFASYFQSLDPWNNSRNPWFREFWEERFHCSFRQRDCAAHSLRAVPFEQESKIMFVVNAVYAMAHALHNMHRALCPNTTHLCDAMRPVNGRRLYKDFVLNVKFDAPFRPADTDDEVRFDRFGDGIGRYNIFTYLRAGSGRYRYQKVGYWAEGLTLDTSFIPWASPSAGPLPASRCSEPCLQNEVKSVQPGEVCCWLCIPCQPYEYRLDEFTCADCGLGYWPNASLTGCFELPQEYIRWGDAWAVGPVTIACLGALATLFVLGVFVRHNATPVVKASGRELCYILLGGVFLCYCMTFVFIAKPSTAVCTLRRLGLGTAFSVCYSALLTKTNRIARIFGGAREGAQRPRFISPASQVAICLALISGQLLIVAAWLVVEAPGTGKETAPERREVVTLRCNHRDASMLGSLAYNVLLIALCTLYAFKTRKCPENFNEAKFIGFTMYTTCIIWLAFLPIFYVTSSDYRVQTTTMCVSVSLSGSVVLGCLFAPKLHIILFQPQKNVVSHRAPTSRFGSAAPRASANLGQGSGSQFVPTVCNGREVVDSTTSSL

mGlu1, sequence (P23385 19-1199): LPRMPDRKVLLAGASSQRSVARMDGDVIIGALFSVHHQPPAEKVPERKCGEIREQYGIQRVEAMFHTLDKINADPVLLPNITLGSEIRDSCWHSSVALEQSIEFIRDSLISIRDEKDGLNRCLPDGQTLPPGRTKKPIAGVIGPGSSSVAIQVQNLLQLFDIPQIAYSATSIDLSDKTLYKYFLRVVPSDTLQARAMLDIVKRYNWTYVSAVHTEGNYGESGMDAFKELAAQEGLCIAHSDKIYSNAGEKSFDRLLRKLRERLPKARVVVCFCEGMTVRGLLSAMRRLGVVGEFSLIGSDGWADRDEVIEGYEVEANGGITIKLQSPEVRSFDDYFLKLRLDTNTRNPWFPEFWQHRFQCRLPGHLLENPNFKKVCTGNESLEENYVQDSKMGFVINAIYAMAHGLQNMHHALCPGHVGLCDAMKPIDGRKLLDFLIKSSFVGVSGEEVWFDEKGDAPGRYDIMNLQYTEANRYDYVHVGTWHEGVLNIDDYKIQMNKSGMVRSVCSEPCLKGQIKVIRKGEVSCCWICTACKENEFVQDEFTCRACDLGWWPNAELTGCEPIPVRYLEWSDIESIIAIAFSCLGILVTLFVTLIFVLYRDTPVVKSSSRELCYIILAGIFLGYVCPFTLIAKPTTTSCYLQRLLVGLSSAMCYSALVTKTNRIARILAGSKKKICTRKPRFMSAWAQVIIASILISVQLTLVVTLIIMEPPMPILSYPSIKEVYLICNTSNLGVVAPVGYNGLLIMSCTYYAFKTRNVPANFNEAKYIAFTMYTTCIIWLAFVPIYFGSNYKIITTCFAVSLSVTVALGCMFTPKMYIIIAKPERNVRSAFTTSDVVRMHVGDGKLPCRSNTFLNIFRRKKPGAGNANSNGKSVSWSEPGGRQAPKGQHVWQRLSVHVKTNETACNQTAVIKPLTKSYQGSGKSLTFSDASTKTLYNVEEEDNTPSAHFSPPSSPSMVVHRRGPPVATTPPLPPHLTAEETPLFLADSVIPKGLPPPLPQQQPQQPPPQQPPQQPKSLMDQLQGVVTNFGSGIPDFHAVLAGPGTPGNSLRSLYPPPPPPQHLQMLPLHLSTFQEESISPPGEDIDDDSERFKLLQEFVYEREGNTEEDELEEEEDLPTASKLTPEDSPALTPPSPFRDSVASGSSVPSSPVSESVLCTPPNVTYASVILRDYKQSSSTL
mGlu8, sequence (P70579 34-908): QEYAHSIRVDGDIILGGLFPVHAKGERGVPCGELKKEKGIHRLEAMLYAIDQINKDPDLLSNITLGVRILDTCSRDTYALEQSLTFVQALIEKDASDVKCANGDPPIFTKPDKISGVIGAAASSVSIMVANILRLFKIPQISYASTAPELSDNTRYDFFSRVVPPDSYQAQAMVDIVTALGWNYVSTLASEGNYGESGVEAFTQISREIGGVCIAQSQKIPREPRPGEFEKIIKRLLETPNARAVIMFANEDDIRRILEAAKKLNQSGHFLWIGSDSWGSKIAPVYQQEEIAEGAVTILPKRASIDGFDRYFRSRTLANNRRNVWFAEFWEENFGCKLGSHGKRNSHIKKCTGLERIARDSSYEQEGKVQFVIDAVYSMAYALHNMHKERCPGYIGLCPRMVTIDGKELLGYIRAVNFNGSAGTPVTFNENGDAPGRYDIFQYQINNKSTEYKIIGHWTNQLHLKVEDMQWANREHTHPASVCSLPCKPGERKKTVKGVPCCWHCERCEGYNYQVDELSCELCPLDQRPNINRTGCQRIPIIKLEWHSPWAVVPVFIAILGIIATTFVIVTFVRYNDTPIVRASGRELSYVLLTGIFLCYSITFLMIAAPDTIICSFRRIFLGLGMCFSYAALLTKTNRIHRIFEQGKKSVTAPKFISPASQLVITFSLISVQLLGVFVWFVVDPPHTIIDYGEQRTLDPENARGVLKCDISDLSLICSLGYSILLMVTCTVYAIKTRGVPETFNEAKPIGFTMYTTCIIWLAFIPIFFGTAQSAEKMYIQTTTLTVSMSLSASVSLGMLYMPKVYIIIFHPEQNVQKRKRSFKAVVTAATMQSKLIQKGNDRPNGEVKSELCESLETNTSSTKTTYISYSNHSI
mGlu6, sequence (P35349 24-871): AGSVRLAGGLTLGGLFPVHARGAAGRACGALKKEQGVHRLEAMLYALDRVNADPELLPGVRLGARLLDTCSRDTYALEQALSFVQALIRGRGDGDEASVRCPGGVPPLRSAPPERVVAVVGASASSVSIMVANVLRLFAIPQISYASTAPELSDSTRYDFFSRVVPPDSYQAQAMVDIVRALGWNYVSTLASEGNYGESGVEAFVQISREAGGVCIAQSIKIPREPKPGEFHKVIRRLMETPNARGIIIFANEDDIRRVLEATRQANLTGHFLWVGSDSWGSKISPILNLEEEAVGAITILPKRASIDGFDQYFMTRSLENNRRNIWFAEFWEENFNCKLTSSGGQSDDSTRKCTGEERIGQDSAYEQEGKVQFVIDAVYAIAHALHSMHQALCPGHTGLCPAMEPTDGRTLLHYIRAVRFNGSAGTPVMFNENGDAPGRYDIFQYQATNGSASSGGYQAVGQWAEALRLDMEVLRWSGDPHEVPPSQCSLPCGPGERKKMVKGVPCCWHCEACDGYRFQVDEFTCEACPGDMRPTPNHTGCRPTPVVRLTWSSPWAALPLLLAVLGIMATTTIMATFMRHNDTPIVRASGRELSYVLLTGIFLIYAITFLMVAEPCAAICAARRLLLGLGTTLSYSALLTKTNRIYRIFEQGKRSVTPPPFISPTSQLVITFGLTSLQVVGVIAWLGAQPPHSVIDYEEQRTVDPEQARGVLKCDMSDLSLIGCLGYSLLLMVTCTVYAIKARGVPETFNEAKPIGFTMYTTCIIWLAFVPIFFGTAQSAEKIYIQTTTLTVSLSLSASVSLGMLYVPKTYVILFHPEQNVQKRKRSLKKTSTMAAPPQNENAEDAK
T1 sequence (P31422 23-879): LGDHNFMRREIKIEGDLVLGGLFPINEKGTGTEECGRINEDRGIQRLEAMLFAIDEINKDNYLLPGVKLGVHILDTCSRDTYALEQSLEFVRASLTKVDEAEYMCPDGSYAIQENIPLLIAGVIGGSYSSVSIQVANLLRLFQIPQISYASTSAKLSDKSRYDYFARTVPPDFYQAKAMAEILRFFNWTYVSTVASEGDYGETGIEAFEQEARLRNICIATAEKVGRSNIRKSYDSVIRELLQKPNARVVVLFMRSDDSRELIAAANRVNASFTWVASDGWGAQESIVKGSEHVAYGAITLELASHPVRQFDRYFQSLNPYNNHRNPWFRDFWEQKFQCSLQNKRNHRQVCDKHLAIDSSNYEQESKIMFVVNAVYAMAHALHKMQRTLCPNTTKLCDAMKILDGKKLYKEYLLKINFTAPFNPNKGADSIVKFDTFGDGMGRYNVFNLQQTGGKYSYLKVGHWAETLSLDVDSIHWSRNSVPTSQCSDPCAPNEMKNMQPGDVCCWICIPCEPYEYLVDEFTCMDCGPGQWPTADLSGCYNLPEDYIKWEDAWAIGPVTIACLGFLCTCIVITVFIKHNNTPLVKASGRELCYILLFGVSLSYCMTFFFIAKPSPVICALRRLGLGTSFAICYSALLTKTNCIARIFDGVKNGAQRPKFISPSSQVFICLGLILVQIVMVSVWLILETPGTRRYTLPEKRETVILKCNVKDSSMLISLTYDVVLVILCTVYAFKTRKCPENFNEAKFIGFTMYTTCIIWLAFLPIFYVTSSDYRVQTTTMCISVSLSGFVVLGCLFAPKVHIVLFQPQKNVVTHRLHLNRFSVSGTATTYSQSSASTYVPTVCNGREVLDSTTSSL

| SMILES | General activity at mGlu6 [4] | General activity at mGlu4 [5] | General activity at mGlu7 [7] | General activity at mGlu8 [8] | General activity at mGlu1 [9] | AUC(0→t) [10] | F, oral bioavailability [10] [%] | Tmax [10] [h] | Cmax [10] [µM] | AUC(0→t) [11] | Cmax [11] [µM] | Vd [11] [L/kg] | General activity at mGlu5 [12] | other results |
| --- | --- | --- | --- | --- | --- | --- | --- | --- | --- | --- | --- | --- | --- | --- |
| Cc1c(OCc2cccc(-c3ccc(C(=O)O)cc3)c2)cc2c(c1C)C(=O)C(C1CCCC1)C2 (stereo not shown) [BINA] |  |  |  |  |  |  |  |  |  |  |  |  |  | cocaine-maintained responding [1]: decreased only cocaine-maintained responding; food-maintained responding [2]: no effect on food-maintained responding; activity in TREx293 mGlu3 Gα15 calcium assay [3]: inactive |
| Cc1c(OCCCCOc2ccc(C(=O)O)cc2)ccc(C(=O)CC(C)C)c1O [Compound 20, 4-(4-(3-Hydroxy-2-methyl-4-(3-methylbutanoyl)phenoxy)butoxy)benzoic acid] | inactive^b | inactive^b | inactive^b | inactive^b | inactive^b | 544.8 ± 75.4 (μmol/L) min | 23.5 | 2.25 | 2.57 ± 0.45 | 231.7 ± 42.12 (μmol/L)*min | 5 ± 0.6 | 0.81 ± 0.14 | inactive^b | General activity at mGlu3 [6]: PAM; Plasma [10]: 5.29 ± 1.98 µM; Kp [10]: 0.2 ± 0.03 |
| Cc1c(OCCCCOc2cccc(C(=O)O)c2)ccc(C(=O)CC2CCCC2)c1O [Compound 25, 3-(4-(4-(2-Cyclopentylacetyl)-3-hydroxy-2-methylphenoxy)butoxy)benzoic acid] | inactive^b | inactive^b | inactive^b | inactive^b | inactive^b |  |  |  |  |  |  |  | inactive^b | General activity at mGlu3 [6]: PAM; Emin, minimal response of the concentration-response of agonist ([6]; mGlu3, 10 μM compound): Emin = 6%; General activity at mGlu2 [13]: Ago-PAM; Emin, minimal response of the concentration-response of agonist ([13]; mGlu2, 10 μM compound): Emin = 45% |
| Cc1c(OCCCCOc2ccc(C(=O)O)c(Cl)c2)ccc(C(=O)CC2CCCC2)c1O [Compound 33, 2-Chloro-4-(4-(4-(2-cyclopentylacetyl)-3-hydroxy-2-methylphenoxy)butoxy)benzoic acid] | inactive^b | inactive^b | inactive^b | inactive^b | inactive^b |  |  |  |  |  |  |  | inactive^b | General activity at mGlu2 [13]: Ago-PAM |
| Cc1c(OCCCCOc2ccc(F)c(C(=O)O)c2)ccc(C(=O)CC(C)C)c1O [Compound 36, 2-Fluoro-5-(4-(3-hydroxy-2-methyl-4-(3-methylbutanoyl)phenoxy)butoxy)benzoic acid] |  |  |  |  |  | 720.5 ± 283.4 (μmol/L) min | 58.2 | 0.5 | 12.5 | 123.7 ± 7.7 (μmol/L)*min | 3.52 ± 0.13 | 0.89 ± 0.03 |  | Plasma [10]: 4.23 ± 1.19 µM; Kp [10]: 0.06 ± 0.03 |
| COc1ccc(C(=O)O)cc1OCCCCOc1ccc(C(=O)CC(C)C)c(O)c1C [Compound 50, 3-{4-[3-Hydroxy-2-methyl-4-(3-methylbutanoyl)phenoxy]butoxy}-4-methoxybenzoic acid] |  |  |  |  |  | 466.2 ± 105.2 (μmol/L) min | 60.4 | 1.6 | 1.05 | 77.2 ± 8.0 (μmol/L)*min | 2.15 ± 0.14 | 2.87 ± 0.6 |  |  |
| CCCC(=O)c1ccc(OCCCCOc2ccc(C(=O)O)cc2OC)c(C)c1O [compound 67] | inactive^b | Antagonist | inactive^b | inactive^b | Antagonist |  |  |  |  |  |  |  | inactive^b |  |
| COC(=O)c1ccc(OCc2cccc(COc3ccc(C(=O)CC4CCCC4)c(C)c3C)c2)cc1 [compound 155] |  |  |  |  |  |  |  |  |  |  |  |  |  | EC50 ([6]; read-out: mGlu3 PAM EC50, PAM mode, test compound, then EC20 glutamate […] later in the presence of thallium, mean ± SEM): > 30 µM; EC50 ([13]; read-out: mGlu2 PAM EC50, PAM mode, test compound, then EC20 glutamate […] later in the presence of thallium, mean ± SEM, at least three experiments): > 30 µM |
| Cc1c(OCc2cccc(-c3cccc(C(=O)NS(C)(=O)=O)c3)c2)ccc(C(=O)CC(C)(C)C)c1O [compound 156, 3′-((4-(3,3-Dimethylbutanoyl)-3-hydroxy-2-methylphenoxy)methyl)-N-(methylsulfonyl)-[1,1′-biphenyl]-3-carboxamide] |  |  |  |  |  |  |  |  |  |  |  |  |  | Emax [6]: 103 ± 1.7%; Emax [13]: 105 ± 2.1% |
| Cc1c(OCc2cccc(-c3cccc(-c4noc(=O)[nH]4)c3)c2)ccc(C(=O)CC(C)(C)C)c1O [compound 157, 3-(3′-((4-(3,3-Dimethylbutanoyl)-3-hydroxy-2-methylphenoxy)methyl)-[1,1′-biphenyl]-3-yl)-1,2,4-oxadiazol-5(4H)-one] |  |  |  |  |  |  |  |  |  |  |  |  |  | Emax [6]: 105 ± 2.8%; Emax [13]: 111 ± 6.6% |
